Type in all cases: cell-based
Assay [1] deals with S. typhimurium strain AroA. The procedure: Synthetic peptides were tested for their ability to inhibit bacterial growth in liquid culture. […] 19606, Acinetobacter spp. ATCC 17903, Acinetobacter spp. ATCC 19004, Escherichia coli strain BL21, S. aureus, S. typhimurium strain AroA, P. aeruginosa or P. pneumotropica. After 5-6 hours of shaking at 37° C., growth was measured as absorbance at 595 nm. As a control, cultures were grown in the presence of 0.1% acetonitrile (i.e., the concentration present in 10 μM peptide).

Assay [2] has as its system A. baumannii ATCC 19606, Acinetobacter spp. ATCC 17903, Acinetobacter spp. ATCC 19004, E. coli BL21, S. aureus, S. typhimurium AroA, P. aeruginosa, P. …. The assay can be described thus: Antibacterial spectrum over the serial dilution panel (Table 6). The note with it: summary of Table 6. On the procedure: Synthetic peptides were tested for their ability to inhibit bacterial growth in liquid culture. The peptides were added at a concentration of between about 5 μM and about 10 μM to individual wells of 96-deep-well dishes that contained liquid growth media freshly inoculated with one of the following bacteria: A. baumannii ATCC Accession No. 19606, Acinetobacter spp. ATCC 17903, Acinetobacter spp. ATCC 19004, Escherichia coli strain BL21, S. aureus, S. typhimurium strain AroA, P. aeruginosa or P. pneumotropica. After 5-6 hours of shaking at 37° C., growth was measured as absorbance at 595 nm. As a control, cultures were grown in the presence of 0.1% acetonitrile (i.e., the concentration present in 10 μM peptide).

For the next assay, the system named is A. baumannii. An excerpt:
Broth dilution methods are e.g., described by Lorian (2007) In: Antibiotics in Laboratory Medicine, Fifth Edition; and In: Clinical and Laboratory Standards Institute, CLSI (formerly NCCLS), In: Methods for Dilution Antimicrobial Susceptibility Tests for Bacteria that Grow Aerobically—Approved Standard—Seventh Edition, CLSI document M7-A7, Villanova, Pa. (NCCLS; January 2006; Vol. 26 No. 2); and In: Clinical and Laboratory Standards Institute, CLSI (formerly NCCLS), Performance Standards for Antimicrobial Susceptibility Testing, Seventeenth Informational Supplement, M100-S17, Vol 27 No. 1 January 2007, all of which are incorporated herein by reference.
The present inventors used such methods to quantitate activity in vitro of antimicrobial peptides of the invention against bacterial isolates, including laboratory strains and 50 clinical isolates of A. baumannii, and S. aureus ATCC Accession No. 2992. Briefly, small volumes of broth are dispensed in sterile, plastic microtiter trays, and 100 μl of serially-diluted antimicrobial peptide (0.1-64 μg) and 100 μl test organism (approximately 1×10^5 C.F.U.), are added. Following aerobic incubation overnight at 35±2° C. Control samples lacked peptide (Growth control), or lacked peptide and bacteria (Sterility control). The trays were examined visually and the minimal inhibitory concentration (MIC) of peptide required to inhibit bacterial growth were determined. The minimum bactericidal concentration (MBC) was estimated by sub-culturing the wells for which no bacterial growth was visible to the naked eye, to thereby determine a concentration of antimicrobial that reduces the original inoculum by at least about 99.9%.

Read-outs that look alike come from different tables or passages of the source. Peptide text beside a SMILES is read from it.

`CC[C@H](C)[C@H](NC(=O)[C@H](CS)NC(=O)[C@H](CCCCN)NC(=O)[C@H](CC(C)C)NC(=O)[C@H](Cc1ccccc1)NC(=O)[C@H](CC(=O)O)NC(=O)[C@H](CC(C)C)NC(=O)[C@H](CCCNC(=N)N)NC(=O)[C@H](CC(N)=O)NC(=O)[C@H](Cc1ccccc1)NC(=O)CNC(=O)[C@@H](NC(=O)[C@@H](NC(=O)[C@H](Cc1c[nH]cn1)NC(=O)[C@H](CC(N)=O)NC(=O)[C@@H](NC(=O)[C@@H](NC(=O)[C@H](Cc1c[nH]cn1)NC(=O)[C@H](Cc1ccccc1)NC(=O)[C@H](CO)NC(=O)[C@@H](NC(=O)[C@@H](N)Cc1ccccc1)C(C)C)[C@@H](C)O)[C@@H](C)O)C(C)C)[C@@H](C)CC)C(=O)N[C@@H](CO)C(=O)O` [Ac3] (H-FVSFHTTNHVIGFNRLDFLKCIS-OH; N-terminus and C-terminus assumed): the “% inhibition of bacterial growth by peptide” value amounted to 2% in assay [1] (5 μM peptide), 2% in assay [1] (10 μM peptide), 6% in assay [1] (15 μM peptide) and 18% in assay [1] (20 μM peptide). For the same molecule, the “selectively inhibited growth of A. baumannii ATCC Accession No. 19606, Acinetobacter spp. ATCC 17903, Acinetobacter spp. ATCC 19004, and S. aureus” value in assay [2] is listed as “selectively inhibited growth”.
For `CC[C@H](C)[C@H](NC(=O)[C@H](CCCCN)NC(=O)[C@H](CO)NC(=O)[C@H](CC(C)C)NC(=O)[C@@H](N)CC(C)C)C(=O)N[C@@H](CCCNC(=N)N)C(=O)N[C@@H](C)C(=O)N[C@@H](CC(C)C)C(=O)N[C@@H](CCCNC(=N)N)C(=O)N[C@@H](CCCNC(=N)N)C(=O)N[C@@H](CCCNC(=N)N)C(=O)N[C@@H](CCCNC(=N)N)C(=O)N[C@@H](Cc1ccccc1)C(=O)NCC(=O)N[C@@H](CCC(N)=O)C(=O)N[C@@H](CO)C(=O)N[C@@H](CC(=O)O)C(=O)N[C@@H](CCCCN)C(=O)N[C@@H](CCCNC(=N)N)C(=O)N[C@H](C(=O)N[C@@H](CO)C(=O)N[C@@H](Cc1ccc(O)cc1)C(=O)N[C@@H](CCCCN)C(=O)O)[C@@H](C)CC` [Ac16] (H-LLSKIRALRRRRFGQSDKRISYK-OH), in the assay on A. baumannii, the “MIC (μM) for non-amidated Peptide” value fell in the range of 10 to 15 µM. The “selectively inhibited growth of A. baumannii ATCC Accession No. 19606, Acinetobacter spp. ATCC 17903 and Acinetobacter spp. ATCC 19004” value in assay [2] is recorded as “selectively inhibited growth”.
For `CC[C@H](C)[C@H](NC(=O)[C@H](Cc1c[nH]c2ccccc12)NC(=O)[C@H](CC(=O)O)NC(=O)[C@H](CO)NC(=O)[C@H](CS)NC(=O)[C@H](CC(C)C)NC(=O)[C@H](CC(C)C)NC(=O)[C@H](C)NC(=O)[C@H](CS)NC(=O)[C@H](CCCNC(=N)N)NC(=O)[C@H](CC(C)C)NC(=O)[C@H](CCCNC(=N)N)NC(=O)[C@H](C)NC(=O)CN)C(=O)N[C@H](C(=O)N[C@@H](CO)C(=O)N[C@@H](CS)C(=O)N[C@@H](CCCNC(=N)N)C(=O)N[C@@H](CC(C)C)C(=O)N[C@@H](CC(C)C)C(=O)NCC(=O)N[C@H](C(=O)N[C@@H](CC(N)=O)C(=O)O)C(C)C)C(C)C` [Ac40] (H-GARLRCALLCSDWIVSCRLLGVN-OH; N-terminus and C-terminus assumed), in the assay on A. baumannii, the “MIC (μM) for amidated peptide” value was 10 to 15 µM and the “MIC (μM) for non-amidated Peptide” value was in the range of 10 to 15 µM. Moreover, the “selectively inhibited growth of A. baumannii ATCC Accession No. 19606, Acinetobacter spp. ATCC 17903, Acinetobacter spp. ATCC 19004, and S. aureus” value in assay [2] was “selectively inhibited growth”.

The record behind these values is patent US20110262508A1, “ANTIMICROBIAL COMPOSITIONS, FORMULATIONS AND USES THEREOF” (priority 2007, published 2011).
